Assay results: US20250304623A1, “PEPTIDES FOR INTRACELLULAR DELIVERY” (UNIVERSIDADE DE SANTIAGO DE COMPOSTELA, priority 2022, published 2025)
Starred links: 1 amine or outer side, 2 acyl side, 3 side chain; linkers in the order of their positions; H or OH if unused. Residues, ends and D or L forms follow the SMILES beside them. Groups on a side chain read outwards from the residue. *: point of attachment. Glutaryl = O=C(CCCC(=O)[*:2])[*:1]; NHNH2 = NN*

Columns and labels:
Assay type in all cases: cell-based
[1] = test system: HCT116 cells expressing EGFP; experiment: EGFP-targeting siRNA delivery (GFP silencing vs siMOCK), HCT116
Procedure: (§1) To generate an EGFP expressing HeLa cell line, HeLa cells were transfected with EGFP pDNA (pEGFP-C1, Clontech) and stable transfectants were selected with 400 μg/mL of G-418 (Millipore). Green clones were selected by epifluorescence microscopy and tested for EGFP expression stability through several passages. […] All other EGFP-expressing cell lines were obtained in a similar way from parent non-EGFP-expressing cell lines.
(§2) Cells expressing EGFP were seeded in a 96 well plate the day before the experiment at a concentration of 50,000 cell/mL (100 μL/w) in DMEM+10% FBS+1% Gln-Abt. For robotic library screening, the delivery of an EGFP-targeting siRNA (EGFP: enhanced green fluorescent protein, Ambion® Silencer® GFP Positive Control siRNA (siGFP) (AM4626)) in six different cell lines expressing EGFP was performed. Amphiphilic molecules stock solutions in DMSO were diluted with DMEM and freshly mixed with siRNA stock solutions in DMEM prior to transfection experiments, to afford several complexes at different amphiphile concentration (2-10 μM) while maintaining a constant final siRNA concentration of 30 nM. The mixture was shaken for 30 min at room temperature (rt) before the addition to the cells. The cell medium was aspirated, and cells were washed twice with PBS. Finally, 50 μL of the solution of siRNA/amphiphile complexes were added to the cells and incubated for 4 h. After transfection, the medium was replaced by 100 μL of fresh DMEM supplemented with 10% FBS. The fluorescence knockdown was quantified after 72 h in a plate reader, by comparison with cells transfected with a non-targeting siRNA control (siMOCK, Silencer™ Negative Control No. 1 siRNA (siMOCK) (AM4611)). EGFP knockdown was compared with Lipofectamine® RNAiMAX silencing efficiency (30-60% depending on cell line, defined with a numeric value in the below tables). All experiments were done in triplicate.
(§3) Tables 1-7: RLuc (pDNA) or EGFP (mRNA) expression levels were normalized to Lipofectamine reagents (value=1) and expressed as fold-times signal increase. In the case of siRNA, the siRNA treated cells fluorescence was compared with siMOCK control fluorescence, while Cas9-RNP mediated knockout was measured against the fluorescence of untreated cells. In both siRNA and Cas9-RNP, values are expressed as % fluorescence reduction. Amphiphile concentration was 5 μM in all cases. All experiments were performed in triplicate.
(§4) Tables 20-25 show the mean (triplicates) percentage of GFP-silencing, accounted by fluorescence intensity decrease relative to a non-targeting siRNA (siMOCK) control, measured after the transfection of siRNA by different amphiphiles at different concentrations in a variety of cell lines. Background values, accounted by untreated control cells, were subtracted for processing.

[2] = test system: A549 cells expressing EGFP; experiment: EGFP-targeting siRNA delivery (GFP silencing vs siMOCK), A549; conditions: for siRNA % fluorescence reduction vs siMOCK: A549, amphiphile 5 μM, hydrophobic tail; for percentage of GFP-silencing relative to siMOCK: A549 cells
Procedure: as §1
as §2, with “Amphiphilic molecules stock solutions in DMSO were diluted with DMEM and freshly mixed with siRNA stock solutions in DMEM prior to transfection experiments, to afford several complexes at different amphiphile concentration (2-10 μM) while maintaining a constant final siRNA concentration of 30 nM.” left out
as §3, §4

[3] = test system: ARPE19 cells expressing EGFP; experiment: Cas9-RNP delivery against EGFP (gene editing, plate reader), ARPE19
Procedure: as §1
Cells expressing EGFP were seeded in a 96 well plate the day before the experiment at a concentration of 50,000 cell/mL (100 μL/w) in DMEM+10% FBS+1% Gln-Abt. For robotic library screening, the delivery of Cas9-RNP against EGFP (RNP designed to knock-out the gene encoding for the enhanced green fluorescent protein (EGFP)) was performed. For RNP assembly, 9.2 μL of crRNA and 9.2 μL of tracrRNA were mixed in 211.6 μL of Nuclease-Free Duplex Buffer (IDT), incubated for 5 min at 95° C. and slowly cooled at rt (see I. Lostalé-Seijo, et al. Peptide/Cas9 nanostructures for ribonucleoprotein cell membrane transport and gene edition, Chem. Sci., 2017). Cas9 protein was dissolved in DMEM at a final concentration of 4 μM and equal volumes of the RNA complex and Cas9 were mixed and incubated for 5 min at rt. 75 μL of the corresponding amphiphile concentrations were added to 5 μL of RNP at 2 μM. The mixture was shaken for 30 min at room temperature before the addition to the cells. The cell medium was aspirated, and cells were washed twice with PBS. Cells were covered with 30 μL of DMEM and 20 μL of the RNP/amphiphile complexes were added to the cells (final peptide concentrations=2.5, 5 and 10 μM; final Cas9-RNP concentration=50 nM) and incubated for 4 h. After the incubation, the medium was replaced by 100 μL of fresh DMEM supplemented with 10% FBS. The total EGFP fluorescence was quantified after 72 h in a plate reader (FIG. 2, Table 1 (right) and Table 6). All experiments were done in triplicate. […]
Tables 26-31 show the mean (triplicates) percentage of gene editing, accounted by GFP fluorescence intensity decrease (% of reduction), measured after the transfection of Cas9-RNP by different amphiphiles at different concentrations in a variety of cell lines. Background values, accounted by untreated control cells, were subtracted for processing.

| Compound | percentage of GFP-silencing relative to siMOCK ([1]; Dodecanal, 5 μM) | percentage of GFP-silencing relative to siMOCK ([1]; Dodecanal, 10 μM) | percentage of GFP-silencing relative to siMOCK ([1]; Dodecanal, 15 μM) | percentage of GFP-silencing relative to siMOCK ([1]; Myristoleyl, 10 μM) | percentage of GFP-silencing relative to siMOCK ([1]; Myristoleyl, 15 μM) | percentage of GFP-silencing relative to siMOCK ([1]; Oleyl, 5 μM) | percentage of GFP-silencing relative to siMOCK ([1]; Oleyl, 15 μM) | percentage of GFP-silencing relative to siMOCK ([1]; Palmitoleyl, 10 μM) | percentage of GFP-silencing relative to siMOCK ([1]; Palmitoleyl, 15 μM) | percentage of GFP-silencing relative to siMOCK ([1]; Petroselinyl, 15 μM) | percentage of GFP-silencing relative to siMOCK ([2]; Dodecanal, 10 μM) | percentage of GFP-silencing relative to siMOCK ([2]; Dodecanal, 15 μM) | percentage of GFP-silencing relative to siMOCK ([2]; Myristoleyl, 5 μM) | percentage of GFP-silencing relative to siMOCK ([2]; Myristoleyl, 10 μM) | percentage of GFP-silencing relative to siMOCK ([2]; Myristoleyl, 15 μM) | percentage of GFP-silencing relative to siMOCK ([2]; Oleyl, 10 μM) | percentage of GFP-silencing relative to siMOCK ([2]; Oleyl, 15 μM) | percentage of GFP-silencing relative to siMOCK ([2]; Palmitoleyl, 15 μM) | percentage of GFP-silencing relative to siMOCK ([2]; Petroselinyl, 10 μM) | percentage of GFP-silencing relative to siMOCK ([2]; Petroselinyl, 15 μM) | other results |
| --- | --- | --- | --- | --- | --- | --- | --- | --- | --- | --- | --- | --- | --- | --- | --- | --- | --- | --- | --- | --- | --- |
| Ac-RK*LRRK*LRK*-NH2 (Ac-RK(NHNH2)LRRK(NHNH2)LRK(NHNH2)-NH2; not fully specified; printed as Ac-RK*LRRK*LRK*-NH2; also: K*2,K*6,K*9: native or modified lysine (ε-amide to a linker)) [Peptide 9.3] | 33% | 33% | 48% | 40% | 13% | 35% | 54% | 25% | 45% | 33% | 35% | 55% | 34% | 58% | 23% | 32% | 28% | 64% | 58% | 75% | siRNA % fluorescence reduction vs siMOCK ([2]; palmitoleyl hydrophobic tail): 75%; percentage of GFP-silencing relative to siMOCK ([2]; Dodecanal, 5 μM): 35%; percentage of GFP-silencing relative to siMOCK ([2]; Palmitoleyl, 5 μM): 42%; percentage of GFP-silencing relative to siMOCK ([2]; Palmitoleyl, 10 μM): 75%; percentage of GFP-silencing relative to siMOCK ([2]; Petroselinyl, 5 μM): 6%; percentage of gene editing, GFP fluorescence intensity decrease (% of reduction) ([3]; Dodecanal, 5 μM): 5%; percentage of gene editing, GFP fluorescence intensity decrease (% of reduction) ([3]; Dodecanal, 15 μM): −14%; percentage of gene editing, GFP fluorescence intensity decrease (% of reduction) ([3]; Myristoleyl, 15 μM): −25%; percentage of gene editing, GFP fluorescence intensity decrease (% of reduction) ([3]; Oleyl, 10 μM): 23%; percentage of gene editing, GFP fluorescence intensity decrease (% of reduction) ([3]; Oleyl, 15 μM): 22%; percentage of gene editing, GFP fluorescence intensity decrease (% of reduction) ([3]; Palmitoleyl, 5 μM): 3%; percentage of gene editing, GFP fluorescence intensity decrease (% of reduction) ([3]; Palmitoleyl, 15 μM): 8%; percentage of gene editing, GFP fluorescence intensity decrease (% of reduction) ([3]; Petroselinyl, 15 μM): −2% |
| CC(=O)N[C@@H](CCCNC(=N)N)C(=O)N[C@@H](CCCCNC(=O)CCCC(=O)NN)C(=O)N[C@@H](Cc1c[nH]cn1)C(=O)N[C@@H](CCCNC(=N)N)C(=O)N[C@@H](CCCCNC(=O)CCCC(=O)NN)C(=O)N[C@@H](CCCCNC(=O)CCCC(=O)NN)C(=O)N[C@@H](Cc1c[nH]cn1)C(N)=O [7.3(L-H), Ac-RK*HRK*K*H-NH2] (Ac-RK([Glutaryl-NHNH2])HRK([Glutaryl-NHNH2])K([Glutaryl-NHNH2])H-NH2) | −10% | 5% |  | 49% | 3% | 24% | 46% | 56% | 38% | 43% |  |  | 18% | 22% | 31% | 14% | 21% | 40% | 20% | 52% | percentage of GFP-silencing relative to siMOCK ([1]; Palmitoleyl, 5 μM): 21%; percentage of GFP-silencing relative to siMOCK ([1]; Petroselinyl, 5 μM): 4%; percentage of GFP-silencing relative to siMOCK ([1]; Petroselinyl, 10 μM): 24%; percentage of GFP-silencing relative to siMOCK ([2]; Oleyl, 5 μM): 2%; percentage of gene editing, GFP fluorescence intensity decrease (% of reduction) ([3]; Myristoleyl, 5 μM): 19%; percentage of gene editing, GFP fluorescence intensity decrease (% of reduction) ([3]; Myristoleyl, 15 μM): 12%; percentage of gene editing, GFP fluorescence intensity decrease (% of reduction) ([3]; Oleyl, 5 μM): 1%; percentage of gene editing, GFP fluorescence intensity decrease (% of reduction) ([3]; Oleyl, 10 μM): 6%; percentage of gene editing, GFP fluorescence intensity decrease (% of reduction) ([3]; Oleyl, 15 μM): 15%; percentage of gene editing, GFP fluorescence intensity decrease (% of reduction) ([3]; Palmitoleyl, 5 μM): 37%; percentage of gene editing, GFP fluorescence intensity decrease (% of reduction) ([3]; Palmitoleyl, 10 μM): 31%; percentage of gene editing, GFP fluorescence intensity decrease (% of reduction) ([3]; Petroselinyl, 5 μM): 18% |
| Ac-RHLK*RHK*RRLK*RH-NH2 (Ac-RHLKRHKRRLKRH-NH2; not fully specified (residues 4, 7, 11); printed as Ac-RHLK*RHK*RRLK*RH-NH2; also: linker on K* not given here) [13(3His)] |  | 62% | 56% | 45% | 29% |  | 31% | 56% |  | 27% | 10% | 37% |  | 28% | 25% | 26% | 29% | 28% | 42% | 71% | percentage of GFP-silencing relative to siMOCK ([1]; Petroselinyl, 5 μM): 13%; percentage of GFP-silencing relative to siMOCK ([1]; Petroselinyl, 10 μM): 60%; siRNA % fluorescence reduction vs siMOCK [2]: 71%; percentage of GFP-silencing relative to siMOCK ([2]; Oleyl, 5 μM): 22%; percentage of GFP-silencing relative to siMOCK ([2]; Palmitoleyl, 10 μM): 36%; percentage of gene editing, GFP fluorescence intensity decrease (% of reduction) ([3]; Petroselinyl, 15 μM): 34% |
